US20100029778A1, “HAIR AND/OR SCALP TREATMENT COMPOSITIONS” (Unilever Home & Personal Care USA, Division of Conopco, Inc., priority 2001, published 2010)
Values joined by “and” are separate entries in the source; they are usually repeats but may differ in a detail not shown here. Equal entries are not always repeated.

Tests used:
histamine-induced itch [1] = experiment: Histamine-induced itch, topically applied Aqueous Cream BP, histamine iontophoresis, VAS; details: for Itch score (area under the curve): volar forearm skin, after 4 hours, VAS area under curve 0 to 5 minutes; for Itch score % of control: control = vehicle alone
histamine-induced itch [2] = experiment: Histamine-induced itch, test material topically applied in ethanol:Vaseline Intensive Care Lotion 1:1; format: in vivo, human; details: for Itch score % of control: 50 mM in ethanol mixed 1:1 with VICL, control = ethanol:VICL vehicle alone of the same run; for Effect on histamine-induced itch (in words): topically applied in the presence of a lotion
histamine-induced itch [3] = experiment: Histamine-induced itch, test material applied under water-impermeable patch for 24 hours before histamine challenge; details: applied by patch
[4] = HU-210 0.05% (w/v) in Aqueous Cream BP
[5] = HU-210 0.5% (w/v) in Aqueous Cream BP

Compound: CCCCCCC(C)(C)c1cc(O)c2c(c1)OC(C)(C)[C@@H]1CC=C(CO)C[C@@H]21 [HU-210, (6aR)-trans-3-(1,1-Dimethylheptyl)-6a,7,10,10a-tetrahydro-1-hydroxy-6,6-dimethyl-6H-dibenzo[b,d]pyran-9-methanol]
- Itch score (area under the curve) (histamine-induced itch [1]; [4]): 101
- Itch score % of control (histamine-induced itch [1]; [4]): 7.3%
- Itch score (area under the curve) (histamine-induced itch [1]; [5]): 119
- Itch score % of control (histamine-induced itch [1]; [5]): 6.2%
- Effect on histamine-induced itch (in words) (histamine-induced itch [1]; topically applied in cream): capable of reducing histamine-induced itch

Compound: CCCCC/C=C\C/C=C\CCCCCCCC(=O)NCCO [LAMEA, linoleoylethanolamine]
- Itch score % of control (histamine-induced itch [2]): 169% and 108% and 100%
- Effect on histamine-induced itch (in words) (histamine-induced itch [2]): unable to demonstrate any anti-pruritic action or even appeared to exacerbate the itch response

Compound: CCCCCCCCCCCCCCCC(=O)NCCO [PEA, Palmitoylethanolamide]
- Effect on histamine-induced itch (in words) (histamine-induced itch [2]): can inhibit histamine-induced itch
- Effect on histamine-induced itch (in words) (histamine-induced itch [3]): can inhibit histamine-induced itch

Compound: CCCCCCCCCCCCCCCCCC(=O)NCCO [SEA]
- Itch score % of control (histamine-induced itch [2]): 231% and 260% and 190%
- Effect on histamine-induced itch (in words) (histamine-induced itch [2]): unable to demonstrate any anti-pruritic action or even appeared to exacerbate the itch response
